Results published in US20230416225A1, “DIAMINOPYRIMIDINE CARBOXAMIDE INHIBITORS OF HPK1” (MERCK SHARP & DOHME LLC, priority 2020, published 2023).

The compounds below were run against T1, Human HPK1, catalytic domain (Homo sapiens, UniProt Q92918) (assay: HPK1-SLP76 TR-FRET assay). Conditions: 75 pM HPK1, 10 uM ATP, 10 nM SLP76, 30 min compound pre-incubation.
T1 construct: purchased Carna
T1 sequence (Q92918 1-346): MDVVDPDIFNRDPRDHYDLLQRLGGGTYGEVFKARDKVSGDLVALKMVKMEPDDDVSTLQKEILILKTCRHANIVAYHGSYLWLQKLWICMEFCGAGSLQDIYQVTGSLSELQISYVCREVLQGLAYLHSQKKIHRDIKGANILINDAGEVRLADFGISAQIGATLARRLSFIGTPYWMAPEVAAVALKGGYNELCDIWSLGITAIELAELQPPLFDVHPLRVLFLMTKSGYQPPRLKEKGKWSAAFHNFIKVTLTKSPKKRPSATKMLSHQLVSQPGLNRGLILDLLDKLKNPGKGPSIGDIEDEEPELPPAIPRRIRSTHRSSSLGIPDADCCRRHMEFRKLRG
Type: biochemical

First: COc1cc2c(cc1Nc1ncc(C(N)=O)c(NCC3CCNCC3)n1)CN(C)CC2 [Example 26-72, 2-[(6-methoxy-2-methyl-1,2,3,4-tetrahydroisoquinolin-7-yl)amino]-4-{[(piperidin-4-yl)methyl]amino}pyrimidine-5-carboxamide]
Second: COc1cc2c(cc1Nc1ncc(C(N)=O)c(NC3C4CCC3CNC4)n1)CN(C)CC2 (stereo not drawn) [Example 26-30, 4-[(3-azabicyclo[3.2.1]octan-8-yl)amino]-2-[(6-methoxy-2-methyl-1,2,3,4-tetrahydroisoquinolin-7-yl)amino]pyrimidine-5-carboxamide]
The IC50 of the first is 23-fold lower: 1.23 nM for the first, 28.6 nM for the second.

First: COc1cc2c(cc1Nc1ncc(C(N)=O)c(Nc3cccc4c3OC(C)(C)C4)n1)CN(C)CC2 [Example 7-14, 4-[(2,2-dimethyl-2,3-dihydro-1-benzofuran-7-yl)amino]-2-[(6-methoxy-2-methyl-1,2,3,4-tetrahydroisoquinolin-7-yl)amino]pyrimidine-5-carboxamide]
Second: COc1cc2c(cc1Nc1ncc(C(N)=O)c(Nc3cccc4c3CCNC4)n1)CN(C)CC2 [Example 7-4, 2-[(6-methoxy-2-methyl-1,2,3,4-tetrahydroisoquinolin-7-yl)amino]-4-[(1,2,3,4-tetrahydroisoquinolin-5-yl)amino]pyrimidine-5-carboxamide]
The IC50 of the first is 2.7-fold higher: 0.19 nM for the first, 0.07 nM for the second. The second is the more potent here.

`COc1cc2c(cc1Nc1ncc(C(N)=O)c(Nc3ccc(F)cc3)n1)CN(C)CC2` [Example 7-21, 4-[(4-fluorophenyl)amino]-2-[(6-methoxy-2-methyl-1,2,3,4-tetrahydroisoquinolin-7-yl)amino]pyrimidine-5-carboxamide] and `COc1cc2c(cc1Nc1ncc(C(N)=O)c(Nc3cc(C)ccc3Cl)n1)CN(C)CC2` [Example 4-18, 4-[(2-chloro-5-methylphenyl)amino]-2-[(6-methoxy-2-methyl-1,2,3,4-tetrahydroisoquinolin-7-yl)amino]pyrimidine-5-carboxamide] are within 1.5-fold of each other in IC50: 0.51 nM for the first, 0.48 nM for the second.

Going from `COc1cc(C2CNC2)ccc1Nc1ncc(C(N)=O)c(Nc2ccccc2Br)n1` [Example 8-4, 2-((4-(azetidin-3-yl)-2-methoxyphenyl)amino)-4-((2-bromophenyl)amino)pyrimidine-5-carboxamide] to `COc1cc2c(cc1Nc1ncc(C(N)=O)c(Nc3ccccc3Br)n1)CN(C1COC1)CC2` [Example 9-2, 4-[(2-bromophenyl)amino]-2-{[6-methoxy-2-(oxetan-3-yl)-1,2,3,4-tetrahydroisoquinolin-7-yl]amino}pyrimidine-5-carboxamide], the IC50 falls from 13.9 nM to 1.42 nM (9.8-fold).

First: COc1cc2c(cc1Nc1ncc(C(N)=O)c(Nc3ccccc3CC(F)(F)F)n1)CN(C)CC2 [Example 7-98, 2-[(6-methoxy-2-methyl-1,2,3,4-tetrahydroisoquinolin-7-yl)amino]-4-{[2-(2,2,2-trifluoroethyl)phenyl]amino}pyri-midine-5-carboxamide]
Second: COc1cc2c(cc1Nc1ncc(C(N)=O)c(NC(C)c3ccccc3C(F)(F)F)n1)CN(C)CC2 (stereo not drawn) [Example 26-22, 2-[(6-methoxy-2-methyl-1,2,3,4-tetrahydroisoquinolin-7-yl)amino]-4-({1-[2-(trifluoromethyl)phenyl]ethyl}amino)pyrimidine-5-carboxamide]
The IC50 of the first is 20-fold lower: 0.07 nM for the first, 1.43 nM for the second.

`COc1cc(F)c(Nc2nc(Nc3cc4c(cc3OC)CCN(C)C4)ncc2C(N)=O)c(F)c1` [Example 4-15, 4-[(2,6-difluoro-4-methoxyphenyl)amino]-2-[(6-methoxy-2-methyl-1,2,3,4-tetrahydroisoquinolin-7-yl)amino]pyrimidine-5-carboxamide] and `COc1cc2c(cc1Nc1ncc(C(N)=O)c(Nc3c(F)cc(Br)cc3F)n1)CN(C)CC2` [Example 4-30, 4-[(4-bromo-2,6-difluorophenyl)amino]-2-[(6-methoxy-2-methyl-1,2,3,4-tetrahydroisoquinolin-7-yl)amino]pyrimidine-5-carboxamide] are within 1.5-fold of each other in IC50: 0.53 nM for the first, 0.42 nM for the second.

First: CN1CCc2cc(F)c(Nc3ncc(C(N)=O)c(NC4CCc5cc(F)c(F)cc54)n3)cc2C1 (stereo not drawn) [Example 26-54, 4-[(5,6-difluoro-2,3-dihydro-1H-inden-1-yl)amino]-2-[(6-fluoro-2-methyl-1,2,3,4-tetrahydroisoquinolin-7-yl)amino]pyrimidine-5-carboxamide]
Second: COc1cc2c(cc1Nc1ncc(C(N)=O)c(N[C@@H]3CCc4ccccc43)n1)CN(C)CC2 [Example 26-67, 4-{[(1R)-2,3-dihydro-1H-inden-1-yl]amino}-2-[(6-methoxy-2-methyl-1,2,3,4-tetrahydroisoquinolin-7-yl)amino]pyrimidine-5-carboxamide]
The IC50 of the first is 4.9-fold lower: 0.97 nM for the first, 4.74 nM for the second. The first is the more potent here.

First: NC(=O)c1cnc(NCc2ccc(C(F)(F)F)cc2)nc1Nc1cccc2c1CCNC2=O [Example 25-38, 4-[(1-oxo-1,2,3,4-tetrahydroisoquinolin-5-yl)amino]-2-({[4-(trifluoromethyl)phenyl]methyl}amino)pyrimidine-5-carboxamide]
Second: CCc1ccc(Nc2ncc(C(N)=O)c(Nc3cccc4c3CCNC4=O)n2)cc1 [Example 25-9, 2-[(4-ethylphenyl)amino]-4-[(1-oxo-1,2,3,4-tetrahydroisoquinolin-5-yl)amino]pyrimidine-5-carboxamide]
The IC50 of the first is 33-fold higher: 404 nM for the first, 12.1 nM for the second.

Compared with `COCC(=O)N1CCc2cc(OC)c(Nc3ncc(C(N)=O)c(Nc4ccccc4Br)n3)cc2C1` [Example 12-5, 4-[(2-bromophenyl)amino]-2-{[6-methoxy-2-(methoxyacetyl)-1,2,3,4-tetrahydroisoquinolin-7-yl]amino}pyrimidine-5-carboxamide], `COc1cc2c(cc1Nc1ncc(C(N)=O)c(Nc3ccccc3Br)n1)CN(C1CC(C(=O)O)C1)CC2` (stereo not drawn) [Example 9-10, 3-[7-({4-[(2-bromophenyl)amino]-5-carbamoylpyrimidin-2-yl}amino)-6-methoxy-3,4-dihydroisoquinolin-2(1H)-yl]cyclobutane-1-carboxylic acid] is 70-fold lower in IC50: 112 nM for the first, 1.6 nM for the second.

Compared with `COc1cc2c(cc1Nc1ncc(C(N)=O)c(Nc3cc(C(F)(F)F)cc4c3CCNC4)n1)CN(C)CC2` [Example 7-66, 2-[(6-methoxy-2-methyl-1,2,3,4-tetrahydroisoquinolin-7-yl)amino]-4-{[7-(trifluoromethyl)-1,2,3,4-tetrahydroisoquinolin-5-yl]amino}pyrimidine-5-carboxamide], `COc1cc2c(cc1Nc1ncc(C(N)=O)c(Nc3cn(C)nc3C(F)(F)F)n1)CN(C)CC2` [Example 7-86, 2-((6-methoxy-2-methyl-1,2,3,4-tetrahydroisoquinolin-7-yl)amino)-4-((1-methyl-3-(trifluoromethyl)-1H-pyrazol-4-yl)amino)pyrimidine-5-carboxamide] is 79-fold higher in IC50: 0.15 nM for the first, 11.8 nM for the second. The first is the more potent here.

Compared with `NC(=O)c1cnc(Nc2cccc(OC(F)F)c2)nc1Nc1cccc2c1CCNC2=O` [Example 25-16, 2-{[3-(difluoromethoxy)phenyl]amino}-4-[(1-oxo-1,2,3,4-tetrahydroisoquinolin-5-yl)amino]pyrimidine-5-carboxamide], `N#CC1(c2cccc(Nc3ncc(C(N)=O)c(Nc4cccc5c4CCNC5=O)n3)c2)CC1` [Example 25-4, 2-{[3-(1-cyanocyclopropyl)phenyl]amino}-4-[(1-oxo-1,2,3,4-tetrahydroisoquinolin-5-yl)amino]pyrimidine-5-carboxamide] is 5.2-fold lower in IC50: 14.5 nM for the first, 2.78 nM for the second. The second is the more potent here.

First: COc1cc2c(cc1Nc1ncc(C(N)=O)c(Nc3cc(C)nn3CCO)n1)CN(C)CC2 [Example 7-90, 4-((1-(2-hydroxyethyl)-3-methyl-1H-pyrazol-5-yl)amino)-2-((6-methoxy-2-methyl-1,2,3,4-tetrahydroisoquinolin-7-yl)amino)pyrimidine-5-carboxamide]
Second: COc1cc2c(cc1Nc1ncc(C(N)=O)c(Nc3c4c(nn3C)CCC4)n1)CN(C)CC2 [Example 7-84, 2-((6-methoxy-2-methyl-1,2,3,4-tetrahydroisoquinolin-7-yl)amino)-4-((2-methyl-2,4,5,6-tetrahydrocyclopenta[c]pyrazol-3-yl)amino)pyrimidine-5-carboxamide]
The IC50 of the first is 3.9-fold lower: 1.44 nM for the first, 5.66 nM for the second. The first is the more potent here.

First: COc1cc2c(cc1Nc1ncc(C(N)=O)c(NCc3cccc(C#N)c3)n1)CN(C)CC2 [Example 26-58, 4-{[(3-cyanophenyl)methyl]amino}-2-[(6-methoxy-2-methyl-1,2,3,4-tetrahydroisoquinolin-7-yl)amino]pyrimidine-5-carboxamide]
Second: COc1cc2c(cc1Nc1ncc(C(N)=O)c(Nc3cccc(CNC(=O)C4(F)CC4)c3)n1)CN(C)CC2 [Example 3-1, 4~[(3~{[(1-fluorocyclo-propane-1-carbonyl)amino]-methyl}phenyl)amino]-2-[(6-methoxy-2-methyl-1,2,3,4-tetrahydroiso-quinolin-7-yl)amino]-pyrimidine-5-carboxamide]
The IC50 of the first is 18-fold higher: 9.83 nM for the first, 0.56 nM for the second. The second is the more potent here.

First: COc1cc2c(cc1Nc1ncc(C(N)=O)c(N[C@@H](C)C3CCCCC3)n1)CN(C)CC2 [Example 26-7, 4-{[(1S)-1-cyclohexylethyl]amino}-2-[(6-methoxy-2-methyl-1,2,3,4-tetrahydroisoquinolin-7-yl)amino]pyrimidine-5-carboxamide]
Second: COc1cc2c(cc1Nc1ncc(C(N)=O)c(Nc3c(F)cccc3F)n1)CNCC2 [Example 9-11, 4-(2,6-difluoroanilino)-2-[(6-methoxy-1,2,3,4-tetrahydroisoquinolin-7-yl)amino]pyrimidine-5-carboxamide]
The IC50 of the first is 15-fold higher: 12 nM for the first, 0.79 nM for the second.

Compared with `NC(=O)c1cnc(Nc2ccc(C3CC3)cc2)nc1Nc1cccc2c1CCNC2=O` [Example 25-13, 2-[(4-cyclopropylphenyl)amino]-4-[(1-oxo-1,2,3,4-tetrahydroisoquinolin-5-yl)amino]pyrimidine-5-carboxamide], `Cc1cccc(F)c1Nc1nc(Nc2cnn(CC(F)(F)F)c2)ncc1C(N)=O` [Example 4-24, 4-[(2-fluoro-6-methylphenyl)amino]-2-{[1-(2,2,2-trifluoroethyl)-1H-pyrazol-4-yl]amino}pyrimidine-5-carboxamide] is 42-fold higher in IC50: 14 nM for the first, 594 nM for the second.
